Earlier results in patent US20110256058A1, “Novel Peptides and Uses Thereof” (UNIVERSITY OF SOUTHERN CALIFORNIA, priority 2007, published 2011).

Test system: α2 aI domain
Conditions: literature; for conformational effect on α2 receptor: open conformation of α2 receptor

## RSECD
  inhibition of aI domain / α2β1 binding to collagen and laminin: fails to inhibit collagen binding

## CARKKHDC [RKKH peptide of structural studies in the literature]
  conformational effect on α2 receptor: induce conformational change

## CTRKKHDNAQC
  binding to aI domain: binds to aI domain
  inhibition of aI domain / α2β1 binding to collagen and laminin: prevents its binding to collagen (type I, IV) and laminin (type 1)

## CTRKKHDC [RKKH peptide of structural studies in the literature]
  conformational effect on α2 receptor: induce conformational change
